According to patent publication US20230414616A1, “LINE-1 INHIBITORS TO TREAT DISEASE” (Transposon Therapeutics, Inc., priority 2020, published 2023):

Tested on: human LINE-1
Experiment: Human LINE-1 retrotransposition assay (HeLa cell-based dual-luciferase reporter)
Details: HeLa cells, reporter plasmid pYX017, 72 h incubation, Firefly/Renilla
Procedure: Representative Compounds of the Disclosure were tested for inhibition of retrotransposition activity of human LINE-1 in HeLa cells according to the following procedure.
HeLa cervical cancer cells were cultivated at 37° C. in a humidified 5% CO2 incubator in Dulbecco's Modified Eagle's Medium (DMEM)—high glucose, with 4500 mg/L glucose, L-glutamine, sodium pyruvate and sodium bicarbonate (Sigma), supplemented with 10% of heat inactivated fetal bovine serum (Thermo Fisher).
Assays were performed using reporter plasmid pYX017 as described (Xie, et al., 2011) with several modifications. The reporter assay was performed in 96-well white optical bottom plates. HeLa cells were seeded in wells 24 h prior to transfection and compound treatment so that cells were approximately 30% confluent on the day of transfection. Different cell plating densities were tested and a density of 2×10^3 cells was determined to be optimal.
Compounds were resuspended in DMSO. Serial dilutions (1:3) were prepared in DMSO. Medium containing different concentrations of the compounds were prepared by adding 2 μl of the compound dilution to 1 ml of the culture medium. The final concentration of DMSO in the medium was 0.2%.
FuGENE® HD transfection reagent (Promega, E2311, Lot 382574 and Lot 397842) was used to transfect the plasmids into the cells. […] Different ratios of transfection reagent to DNA were tested and a ratio of 3:1 was determined to be optimal. […] A 72 h incubation time was determined to be optimal.
Luciferase reporter activity was quantified with the Dual-Luciferase® Reporter Assay System (Promega) according to manufacturer's instructions for multiwell plates except that cells were lysed directly on the multiwell plate with 30 μl of the passive lysis buffer (PLB) for 20 min at room temperature, with gentle shaking to ensure complete cell lysis.
Firefly and Renilla luciferase signals were measured using a SpectraMax i3x Multi-Mode Microplate Reader. […] Relative L1 activity is calculated as Firefly/Renilla *1000 or Firefly/Renilla *10,000. […]

| SMILES | IC50 [nM] | IC50 (HeLa, 72 h) [nM] |
| --- | --- | --- |
| CC(C)OC(=O)[C@H](C)N[P@](=O)(CO[C@H](C)Cn1cnc2c(N)ncnc21)Oc1ccccc1 [tenofovir alafenamide, reference compound] | 10 | – |
| CC[C@]1(CO)O[C@@H](n2cnc3c(O)nc(N)nc32)C[C@@H]1O [Compound 27] | – | 2.6 |
| C#C[C@]1(CO)O[C@@H](n2cc(F)c(=O)[nH]c2=O)C[C@@H]1O [Compound 15] | – | 830 |
